Reference: ChEMBL document CHEMBL3997842, “Discovery of novel BTK inhibitors with carboxylic acids” (Bioorg Med Chem Lett, 2017)

Key:
HeLa = experiment: Inhibition of [3H]-adenosine uptake in human HeLa cells preincubated for 30 mins followed by [3H]-adenosine addition measured after 60 mins by PMT-based radiometric detection method; format: cell-based; settings: 1 h
[1] = Apparent permeability of the compound; format: physicochemical; settings: not told
[2] = target: T1, Tyrosine-protein kinase BTK (Homo sapiens, UniProt Q06187); experiment: Inhibition of 6-His-tagged recombinant full length BTK (unknown origin) expressed in baculovirus-transfected Sf9 cells using Biotin-EQEDEPEGDYFEWLE-NH2 as substrate preincubated for 60 mins followed by substrate addition measured after 120 mins by LANCE TR-FRET assay
T1 sequence (Q06187 whole entry): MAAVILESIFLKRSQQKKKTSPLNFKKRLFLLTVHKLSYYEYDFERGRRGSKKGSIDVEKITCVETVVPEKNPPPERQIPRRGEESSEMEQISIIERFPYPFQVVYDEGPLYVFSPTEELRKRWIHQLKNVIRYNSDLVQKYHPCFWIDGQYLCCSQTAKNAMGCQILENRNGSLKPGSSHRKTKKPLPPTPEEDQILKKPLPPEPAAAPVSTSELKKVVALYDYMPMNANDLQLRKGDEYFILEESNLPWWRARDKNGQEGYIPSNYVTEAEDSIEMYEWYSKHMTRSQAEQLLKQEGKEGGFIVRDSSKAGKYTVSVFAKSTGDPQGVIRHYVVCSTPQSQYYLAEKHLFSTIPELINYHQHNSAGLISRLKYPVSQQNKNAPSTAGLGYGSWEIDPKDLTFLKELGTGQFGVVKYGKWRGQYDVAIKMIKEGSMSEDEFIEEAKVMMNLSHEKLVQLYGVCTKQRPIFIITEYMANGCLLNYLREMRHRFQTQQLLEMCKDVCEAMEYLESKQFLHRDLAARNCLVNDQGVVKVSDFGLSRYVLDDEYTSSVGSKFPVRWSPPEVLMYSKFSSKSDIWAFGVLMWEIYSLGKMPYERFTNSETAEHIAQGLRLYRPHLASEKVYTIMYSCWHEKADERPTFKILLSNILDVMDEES

[3] = target: T1, Tyrosine-protein kinase BTK; experiment: Inhibition of BTK in human PBMC
[4] = Oral bioavailability in rat; format: ADME, organism-based; settings: in vivo
[5] = target: Voltage-dependent L-type calcium channel subunit alpha-1C (Homo sapiens, UniProt Q13936); experiment: Inhibition of Cav1.2 (unknown origin)
Chain of Voltage-dependent L-type calcium channel subunit alpha-1C (Q13936 whole entry): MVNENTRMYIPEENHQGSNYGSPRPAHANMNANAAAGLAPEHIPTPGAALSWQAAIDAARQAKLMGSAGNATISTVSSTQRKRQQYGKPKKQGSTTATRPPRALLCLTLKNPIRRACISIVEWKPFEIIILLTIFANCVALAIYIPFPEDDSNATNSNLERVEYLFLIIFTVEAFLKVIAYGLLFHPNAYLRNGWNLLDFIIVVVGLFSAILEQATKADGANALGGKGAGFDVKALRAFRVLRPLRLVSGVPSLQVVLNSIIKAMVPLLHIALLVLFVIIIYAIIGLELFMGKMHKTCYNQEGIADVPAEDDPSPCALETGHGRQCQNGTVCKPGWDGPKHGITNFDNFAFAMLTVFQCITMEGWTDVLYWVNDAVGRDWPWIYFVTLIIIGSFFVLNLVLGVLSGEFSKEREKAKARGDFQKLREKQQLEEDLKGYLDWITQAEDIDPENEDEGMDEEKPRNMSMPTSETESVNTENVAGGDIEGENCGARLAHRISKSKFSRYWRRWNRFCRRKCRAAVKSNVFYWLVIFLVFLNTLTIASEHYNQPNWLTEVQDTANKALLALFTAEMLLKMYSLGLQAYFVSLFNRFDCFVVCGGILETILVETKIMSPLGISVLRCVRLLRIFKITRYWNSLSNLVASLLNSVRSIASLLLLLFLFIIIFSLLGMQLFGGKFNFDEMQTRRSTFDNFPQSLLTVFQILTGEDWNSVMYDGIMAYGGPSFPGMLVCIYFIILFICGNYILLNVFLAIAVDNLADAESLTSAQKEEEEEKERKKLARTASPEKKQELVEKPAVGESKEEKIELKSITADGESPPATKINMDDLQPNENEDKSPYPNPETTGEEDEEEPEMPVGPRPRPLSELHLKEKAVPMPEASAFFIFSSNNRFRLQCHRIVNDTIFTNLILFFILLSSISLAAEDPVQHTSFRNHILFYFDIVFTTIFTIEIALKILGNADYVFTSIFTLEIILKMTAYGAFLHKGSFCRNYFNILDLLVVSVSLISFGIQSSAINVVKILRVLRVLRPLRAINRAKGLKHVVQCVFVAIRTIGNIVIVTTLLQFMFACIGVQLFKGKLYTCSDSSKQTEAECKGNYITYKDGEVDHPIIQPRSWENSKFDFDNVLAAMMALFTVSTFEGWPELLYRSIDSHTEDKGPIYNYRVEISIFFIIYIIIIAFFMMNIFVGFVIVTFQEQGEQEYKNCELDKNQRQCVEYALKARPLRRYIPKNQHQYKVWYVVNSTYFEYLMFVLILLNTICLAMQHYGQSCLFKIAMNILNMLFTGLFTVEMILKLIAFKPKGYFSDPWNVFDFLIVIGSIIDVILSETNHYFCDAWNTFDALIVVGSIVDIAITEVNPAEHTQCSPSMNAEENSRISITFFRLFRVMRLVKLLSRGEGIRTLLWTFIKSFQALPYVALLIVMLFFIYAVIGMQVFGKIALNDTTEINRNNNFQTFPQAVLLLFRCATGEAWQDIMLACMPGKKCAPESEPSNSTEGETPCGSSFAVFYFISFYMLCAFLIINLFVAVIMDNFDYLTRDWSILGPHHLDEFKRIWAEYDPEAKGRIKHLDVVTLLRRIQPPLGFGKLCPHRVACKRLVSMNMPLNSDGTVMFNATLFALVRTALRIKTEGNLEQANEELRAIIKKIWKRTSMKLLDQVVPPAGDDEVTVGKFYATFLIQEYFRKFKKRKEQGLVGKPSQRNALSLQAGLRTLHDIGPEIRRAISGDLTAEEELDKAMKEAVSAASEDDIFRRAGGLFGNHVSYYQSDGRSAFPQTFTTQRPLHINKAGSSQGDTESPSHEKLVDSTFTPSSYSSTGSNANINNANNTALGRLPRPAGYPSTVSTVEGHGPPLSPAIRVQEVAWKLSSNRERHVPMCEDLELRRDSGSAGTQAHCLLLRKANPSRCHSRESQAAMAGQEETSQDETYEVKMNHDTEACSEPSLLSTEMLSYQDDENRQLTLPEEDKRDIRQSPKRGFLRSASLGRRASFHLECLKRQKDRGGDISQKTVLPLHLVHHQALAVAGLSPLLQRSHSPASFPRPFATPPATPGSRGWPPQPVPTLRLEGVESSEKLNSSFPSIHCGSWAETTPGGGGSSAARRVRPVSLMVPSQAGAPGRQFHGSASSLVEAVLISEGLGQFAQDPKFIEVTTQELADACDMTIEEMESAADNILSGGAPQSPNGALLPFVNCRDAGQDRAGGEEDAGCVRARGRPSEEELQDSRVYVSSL

[6] = target: Sodium channel protein type 5 subunit alpha (Homo sapiens, UniProt Q14524); experiment: Inhibition of Nav1.5 (unknown origin)
[7] = Clearance in iv dosed rat; format: ADME, organism-based; settings: in vivo
[8] = Unbound fraction in rat; format: ADME
[9] = Half life in iv dosed rat; format: ADME, organism-based; settings: in vivo
[10] = target: Voltage-gated inwardly rectifying potassium channel KCNH2 (Homo sapiens, UniProt Q12809); experiment: Inhibition of human ERG
Chain of Voltage-gated inwardly rectifying potassium channel KCNH2 (Q12809 whole entry): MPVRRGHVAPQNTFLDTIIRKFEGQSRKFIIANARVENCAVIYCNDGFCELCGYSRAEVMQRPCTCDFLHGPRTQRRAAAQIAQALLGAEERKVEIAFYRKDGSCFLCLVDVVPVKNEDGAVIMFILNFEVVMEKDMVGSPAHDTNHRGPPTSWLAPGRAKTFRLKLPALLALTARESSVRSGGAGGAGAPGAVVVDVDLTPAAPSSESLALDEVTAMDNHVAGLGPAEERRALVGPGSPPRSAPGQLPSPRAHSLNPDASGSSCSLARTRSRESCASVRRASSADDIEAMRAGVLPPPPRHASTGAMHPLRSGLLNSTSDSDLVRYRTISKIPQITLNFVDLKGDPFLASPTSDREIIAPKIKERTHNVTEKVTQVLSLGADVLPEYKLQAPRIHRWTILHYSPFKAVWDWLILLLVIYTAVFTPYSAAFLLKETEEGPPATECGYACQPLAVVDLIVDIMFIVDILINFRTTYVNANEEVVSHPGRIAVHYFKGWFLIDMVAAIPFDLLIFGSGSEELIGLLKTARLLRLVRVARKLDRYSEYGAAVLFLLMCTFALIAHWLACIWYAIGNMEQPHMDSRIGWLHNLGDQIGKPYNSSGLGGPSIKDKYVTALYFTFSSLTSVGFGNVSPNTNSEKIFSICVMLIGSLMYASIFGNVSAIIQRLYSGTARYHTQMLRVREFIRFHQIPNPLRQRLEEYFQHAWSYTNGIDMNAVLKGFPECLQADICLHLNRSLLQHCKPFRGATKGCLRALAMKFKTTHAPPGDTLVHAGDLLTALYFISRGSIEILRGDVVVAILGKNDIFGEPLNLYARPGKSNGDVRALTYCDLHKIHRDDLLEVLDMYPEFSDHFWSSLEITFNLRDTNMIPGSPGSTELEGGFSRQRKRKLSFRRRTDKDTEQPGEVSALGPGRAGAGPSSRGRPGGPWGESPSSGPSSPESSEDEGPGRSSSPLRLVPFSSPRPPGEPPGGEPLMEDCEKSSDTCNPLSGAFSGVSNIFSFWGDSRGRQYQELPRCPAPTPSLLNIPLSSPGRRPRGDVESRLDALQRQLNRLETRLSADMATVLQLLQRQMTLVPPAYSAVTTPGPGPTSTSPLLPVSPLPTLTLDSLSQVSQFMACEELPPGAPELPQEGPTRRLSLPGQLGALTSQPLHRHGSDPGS

[11] = Clearance in iv dosed dog; format: ADME, organism-based, Canis lupus familiaris; settings: in vivo
[12] = Half life in iv dosed dog; format: ADME, organism-based, Canis lupus familiaris; settings: in vivo
[13] = Oral bioavailability in dog; format: ADME, organism-based, Canis lupus familiaris; settings: in vivo
[14] = Plasma clearance in rat; format: ADME
[15] = Half life in rat; format: ADME; settings: in vivo

Structure (SMILES): Nc1nccn2c([C@@H]3CCC[C@H](c4nn[nH]n4)C3)nc(-c3ccc(C(=O)Nc4cc(C(F)(F)F)ccn4)cc3)c12
- Inhibitory concentration (HeLa): > 10000 nM
- Papp [1]: 3 ×10⁻⁶ cm/s

Structure (SMILES): Nc1nccn2c1c(-c1ccc(C(=O)Nc3cc(C(F)(F)F)ccn3)cc1)nc2[C@H]1CC[C@@H](C(=O)O)CC1
- Inhibitory concentration (HeLa): > 10000 nM

Structure (SMILES): C[C@]1(C(=O)O)CCC[C@@](C)(c2nc(-c3ccc(C(=O)Nc4cc(C(F)(F)F)ccn4)cc3)c3c(N)nccn23)C1
- IC50 [2]: 0.1 nM
- IC50 [3]: 18 nM
- bioavailability [4]: 22%
- IC50 [5]: 13 µM
- IC50 [6]: > 30 µM
- clearance [7]: 9 mL/min/kg
- Inhibitory concentration (HeLa): 6073 nM
- fraction unbound [8]: 0.002
- half-life [9]: 180 min

Structure (SMILES): Nc1nccn2c1c(-c1ccc(C(=O)Nc3cc(C(F)(F)F)ccn3)cc1)nc2[C@]12CC[C@](C(=O)O)(CC1)C2
- IC50 [2]: 0.2 nM
- IC50 [3]: 9 nM
- Inhibitory concentration (HeLa): 459 nM

Structure (SMILES): C[C@]1(C(=O)O)CCC[C@@H](c2nc(-c3ccc(C(=O)Nc4cc(C(F)(F)F)ccn4)cc3)c3c(N)nccn23)C1 (racemic)
- fraction unbound [8]: 0.002

Structure (SMILES): C[C@H]1CC[C@@H](c2nc(-c3ccc(C(=O)Nc4cc(C(F)(F)F)ccn4)cc3F)c3c(N)nccn23)CN1C(=O)C1CC1
- Inhibitory concentration (HeLa): 110 nM

Structure (SMILES): Nc1nccn2c1c(-c1ccc(C(=O)Nc3cc(C(F)(F)F)ccn3)cc1)nc2[C@H]1CC[C@H](C(=O)O)CC1
- Inhibitory concentration (HeLa): > 10000 nM

Structure (SMILES): CS(=O)(=O)NC(=O)[C@H]1CCC[C@@H](c2nc(-c3ccc(C(=O)Nc4cc(C(F)(F)F)ccn4)cc3)c3c(N)nccn23)C1
- Inhibitory concentration (HeLa): 5600 nM
- Papp [1]: 2 ×10⁻⁶ cm/s

Structure (SMILES): C[C@]1(C(=O)O)CC[C@@H](c2nc(-c3ccc(C(=O)Nc4cc(C(F)(F)F)ccn4)cc3)c3c(N)nccn23)C1
- Inhibitory concentration (HeLa): 5396 nM

Structure (SMILES): Nc1nccn2c(C34CCC(C(=O)O)(CC3)CC4)nc(-c3ccc(C(=O)Nc4cc(C(F)(F)F)ccn4)cc3)c12
- IC50 [2]: 0.2 nM
- IC50 [3]: 5 nM
- Inhibitory concentration (HeLa): 308 nM

Structure (SMILES): C[C@]1(C(=O)O)CC[C@@](C)(c2nc(-c3ccc(C(=O)Nc4cc(C(F)(F)F)ccn4)cc3)c3c(N)nccn23)C1
- IC50 [2]: 0.2 nM
- IC50 [3]: 8 nM
- bioavailability [4]: 39%
- IC50 [5]: 19 µM
- IC50 [6]: > 30 µM
- clearance [7]: 2 mL/min/kg
- Inhibitory concentration (HeLa): 1699 nM
- fraction unbound [8]: 0.001
- half-life [9]: 144 min

Structure (SMILES): Nc1nccn2c1c(-c1ccc(C(=O)Nc3cc(C(F)(F)F)ccn3)cc1)nc2[C@]12CCC[C@](C(=O)O)(CC1)CC2
- IC50 [2]: 0.3 nM
- IC50 [3]: 6 nM
- Inhibitory concentration (HeLa): 274 nM

Structure (SMILES): C[C@]1(C(=O)O)CC[C@@](C)(c2nc(-c3ccc(C(=O)Nc4cc(C(F)(F)F)ccn4)cc3)c3c(N)nccn32)CC1
- IC50 [2]: 1 nM
- IC50 [3]: 17 nM
- bioavailability [4]: 75%
- IC50 [10]: > 60 µM
- IC50 [5]: 15 µM
- IC50 [6]: > 30 µM
- clearance [7]: 13 mL/min/kg
- Inhibitory concentration (HeLa): 1452 nM
- fraction unbound [8]: 0.001
- half-life [9]: 300 min
- clearance [11]: 13 mL/min/kg
- half-life [12]: 348 min
- bioavailability [13]: 77%

Structure (SMILES): CC(C)[C@@]1(C(=O)O)CC[C@@](C)(c2nc(-c3ccc(C(=O)Nc4cc(C(F)(F)F)ccn4)cc3)c3c(N)nccn23)C1
- IC50 [2]: 0.4 nM
- IC50 [3]: 20 nM
- bioavailability [4]: 44%
- IC50 [10]: > 60 µM
- IC50 [5]: 8 µM
- IC50 [6]: > 30 µM
- clearance [7]: 2.8 mL/min/kg
- Inhibitory concentration (HeLa): 4010 nM
- fraction unbound [8]: 0.003
- half-life [9]: 120 min

Structure (SMILES): CC1(C(=O)O)CCC(c2nc(-c3ccc(C(=O)Nc4cc(C(F)(F)F)ccn4)cc3)c3c(N)nccn23)CC1 (stereo unspecified)
- Inhibitory concentration (HeLa): 2492 nM

Structure (SMILES): Nc1nccn2c([C@H]3C[C@@H]4[C@H](C3)[C@H]4C(=O)O)nc(-c3ccc(C(=O)Nc4cc(C(F)(F)F)ccn4)cc3)c12
- Inhibitory concentration (HeLa): 1927 nM

Structure (SMILES): Nc1nccn2c(C34C5C6C3C3C4C5C63C(=O)O)nc(-c3ccc(C(=O)Nc4cc(C(F)(F)F)ccn4)cc3F)c12 (stereo unspecified)
- Inhibitory concentration (HeLa): 812 nM

Structure (SMILES): Nc1nccn2c([C@@H]3CCC[C@H](c4n[nH]c(=O)o4)C3)nc(-c3ccc(C(=O)Nc4cc(C(F)(F)F)ccn4)cc3)c12
- Inhibitory concentration (HeLa): 44 nM

Structure (SMILES): Nc1nccn2c([C@@H]3CCC[C@H](c4nnc[nH]4)C3)nc(-c3ccc(C(=O)Nc4cc(C(F)(F)F)ccn4)cc3)c12
- Inhibitory concentration (HeLa): 168 nM
- Papp [1]: 20 ×10⁻⁶ cm/s

Structure (SMILES): Nc1nccn2c([C@@H]3CCC[C@H](C(=O)O)C3)nc(-c3ccc(C(=O)Nc4cc(C(F)(F)F)ccn4)cc3)c12
- clearance [14]: 7.9 mL/min/kg
- half-life [15]: 72 min
- bioavailability [4]: 2%
- IC50 [10]: > 60 µM
- IC50 [5]: > 30 µM
- IC50 [6]: > 30 µM
- Papp [1]: 7 ×10⁻⁶ cm/s

Structure (SMILES): CCOc1cc(C(=O)Nc2cc(C(F)(F)F)ccn2)ccc1-c1nc(C23CCC(C(=O)O)(CC2)CC3)n2ccnc(N)c12
- clearance [14]: 139 mL/min/kg
- half-life [15]: 48 min
- bioavailability [4]: 30%
- IC50 [5]: 15 µM
- IC50 [6]: > 30 µM

Structure (SMILES): NC(=O)[C@H]1CCC[C@@H](c2nc(-c3ccc(C(=O)Nc4cc(C(F)(F)F)ccn4)cc3)c3c(N)nccn23)C1
- Inhibitory concentration (HeLa): 45 nM

Structure (SMILES): Nc1nccn2c([C@@H]3CCC[C@H](c4noc(=O)[nH]4)C3)nc(-c3ccc(C(=O)Nc4cc(C(F)(F)F)ccn4)cc3)c12
- Inhibitory concentration (HeLa): 9086 nM

Structure (SMILES): Cn1nnnc1[C@H]1CCC[C@@H](c2nc(-c3ccc(C(=O)Nc4cc(C(F)(F)F)ccn4)cc3)c3c(N)nccn23)C1
- Inhibitory concentration (HeLa): 155 nM
- Papp [1]: 26 ×10⁻⁶ cm/s

Structure (SMILES): Nc1nccn2c(C34CC(C(=O)O)(C3)C4)nc(-c3ccc(C(=O)Nc4cc(C(F)(F)F)ccn4)cc3)c12
- IC50 [2]: 0.4 nM
- IC50 [3]: 67 nM
- Inhibitory concentration (HeLa): 6476 nM

Structure (SMILES): Cn1nnc([C@H]2CCC[C@@H](c3nc(-c4ccc(C(=O)Nc5cc(C(F)(F)F)ccn5)cc4)c4c(N)nccn34)C2)n1
- Inhibitory concentration (HeLa): 150 nM
- Papp [1]: 28 ×10⁻⁶ cm/s
